What was measured:
[1] = molecular target: TrkA (Homo sapiens (Human), UniProt P04629); assay: TrkA kinase-inhibiting activity using human TrkA expressing cells (CellSenser TrkA-NFAT-bla CHO-K1, NGF-stimulated reporter assay); assay type: cell-based; settings: CHO-K1 cells expressing human TrkA and NFAT-bla; NGF 50 ng/ml; read-out: TrkA inhibitory activity (IC50; μM)
Description: TrkA kinase-inhibiting activity in cell systems was measured using CHO-K1 cells expressing human TrkA and NFAT-bla (CellSenser™ TrkA-NFAT-bla CHO-K1 cells, Invitrogen).
On the day before the assay, CellSenser™ TrkA-NFAT-bla CHO-K1 cells were suspended in an assay medium (Opti-MEM1 Reduced Serum Medium (Invitrogen) containing 0.5% dialysed fetal bovine serum (Invitrogen), 0.1 mM nonessential amino acids (Invitrogen), 1 mM sodium pyruvate (Invitrogen) and antibiotics (100 U/mL penicillin and 100 μg/mL streptomycin (Invitrogen)) and plated at a density of 2.4×10^4 cells/40 μL/well in a 96-well clear bottom plate (Corning, Catalogue No.: 3882). In some wells were added only the assay medium at 40 μL/well (Cell-free). On the day of the assay, 10 mM of the present compound (DMSO solution) was distributed in a 96-well plate (Costar, Catalogue No.: 3363) and serially diluted with DMSO with the geometrical ratio of 3. The serial dilutions were diluted with the assay medium to 100-fold to prepare a solution of the present compound with a 10-times concentration (DMSO concentration: 1%). To the plate where cells were plated was added the present compound at 5 μL/well and the plate was incubated in a CO2 incubator with 5% CO2, 95% Air at 37° C. for 30 minutes. For a control and a blank, the assay medium containing 1% DMSO was added at 5 μL/well in place of the solution of the present compound. Subsequently the assay medium containing NGF (Mouse 2.5s, Natural, Invitrogen) was added to the plate at 5 µL/well (final concentration of NGF: 50 ng/ml) and the plate was incubated in a CO2 incubator with 5% CO2, 95% Air at 37° C. for 5 hours. For a group of blanks, the assay medium was added in place of NGF at 5 μL/well. A reporter assay detection reagent (10 μL/well) was added to the plate and the plate was then incubated in the dark at room temperature for 120 minutes. The reporter assay detection reagent was prepared from LiveBLAzer™-FRET B/G Loading Kit (Invitrogen). On an Analyst GT (Molecular Devices Japan, K.K.) the wells were irradiated with excitation light at 405 nm and the fluorescence intensities at 460 nm and 530 nm were measured. The time resolved fluorescence resonance energy transfer (TR-FRET) ratio of each well was calculated according to the following Equation 2. TR-FRET Ratio=(A460X−A460F)/(A530X−A530F) Equation 2
wherein A460X: the fluorescence intensity at 460 nm of the present compound, control or blank;
A460F: the fluorescence intensity at 460 nm of the Cell-free;
A530X: the fluorescence intensity at 530 nm of the present compound, control or blank; and
A530F: the fluorescence intensity at 530 nm of the Cell-free. […]
The IC50 value of the present compound was calculated from the inhibition curve based on the inhibition rate of the present compound at respective concentrations.

[2] = system: NGF-induced vascular hyper permeability; assay: Suppression of rat NGF-induced vascular hyper permeability (in vivo test, Evans Blue); settings: oral, 12 hours after administration, read-out: Rates of Suppression for Vascular Hyper Permeability (%)
Description: TrkA-inhibiting activity of the present compound was evaluated in vivo. The present compound dissolved in a medium was orally administered (adminstered volume: 5 mL/kg) to male CD(SD)IGS rats (7- to 9-week old, Charles River laboratories Japan, Inc.) shaved on the back. A medium was orally administered (adminstered volume: 5 mL/kg) to the control and normal groups. After 6 or 12 hours of administration, 3 μg/mL of a NGF (Mouse 2.5s, Natural, Invitrogen) solution prepared in 0.1% BSA (Sigma-Aldrich)-containing saline was intracutaneously administered (dose; 50 μL/site) at 3 sites on the back of animals under halothane anesthesia. For the normal group, 0.1% BSA-containing saline was intracutaneously administered (dose; 50 μL/site) at 3 sites on the back. Immediately after intracutaneous administration, 1% Evans Blue (Tokyo Chemical Industry Co., Ltd.) was administered intravenously from tail (adminstered volume: 3 mL/kg). After 10 minutes of administration, the animals were sacrificed by bleeding due to incision of the abdominal aorta. The sites of intracutaneous administration on the back (3 sites) were excised and the skin samples were respectively transferred to the wells in a 48-well plate (Asahi Glass Co., Ltd.). Formamide (0.8 mL/well) was added to the plate and the plate was sealed and incubated overnight at 60° C. The formamide extraction solution (200 μL) was transferred to a 96-well plate and the absorbance (wavelength: 620 nm) of Evans Blue extracted in formamide was measured on an absorbance microplate reader (SpectraMAX 190, Molecular Devices Japan, K.K.). Standard samples of Evans Blue dissolved in formamide (0, 0.78, 1.56, 3.13, 6.25, 12.5, 25 and 50 μg/mL) were measured at the same time for the absorbance (wavelength: 620 nm) to generate a calibration curve. Based on the calibration curve and the absorbances of samples, the concentrations of Evans Blue in the sample was calculated. The concentrations of Evans Blue for three skin samples collected from one aminal were averaged to obtain the vale for the animal. The rate of suppression for rat NGF-induced vascular hyper permeability of the present compound was calculated according to the following Equation 4: Suppression rate (%)=(1−(AX−AN)/(AC−AN)}×100 Equation 4
wherein AX: the concentration of Evans Blue of the test compound (an average value of 3 samples from one animal);
AN: the concentration of Evans Blue of the normal group (an average value of 3 samples from one animal);
AC: the concentration of Evans Blue of the control group (an average value of 3 samples from one animal).

[3] = molecular target: Abl (Homo sapiens (Human), UniProt P00519); assay: Enzyme inhibition activity test for kinases other than Trk (selectivity test): Abl; assay type: biochemical; settings: test concentration 3 μM; read-out: Inhibition Rate (%) Abl
Description: (§1) A test substance (present compound or comparative compound) was dissolved in dimethylsulfoxide and further diluted with dimethylsulfoxide to prepare a solution having a concentration of 100 times the test concentration of 3 μM. The solution was further diluted to 25-fold with an assay buffer (20 mM HEPES, 0.01% Triton X-100, 2 mM DTT, pH 7.5) to obtain a test substance solution. In a similar manner a positive control substance solution was prepared with a positive control substance.
(§2) A 4-times concentration solution (5 μL) of the test substance prepared with the assay buffer, 5 μL of a 4-times concentration solution of substrate/ATP/metal (Mg) and 10 μL of a 2-times concentration solution of kinase were mixed in a well of a polypropylene 384-well plate and allowed to react at room temperature for 1 hour. The reaction was terminated by adding 60 μL of a Termination Buffer (QuickScout Screening Assist MSA; Carna Biosciences). The substrate peptide and the phosphorylated peptide in the reaction solution were separated and quantified. The kinase reaction was assessed from the product ratio (P/(P+S)) calculated from the height (S) of the peak of the substrate peptide and the height (P) of the peak of the phosphorylated peptide. Other kinases used in the kinase selectivity experiments were, for example, Abl, c-Met, b-Raf, c-Kit and KDR. The following Table 2 indicates substrates, substrate concentrations, ATP concentrations and positive control substances used in respective kinase enzyme inhibition activity tests.
(§3) The inhibition rate was calculated from the average signal intensity of the test wells containing respective test substances provided that the average signal intensity of control wells each containing all reaction components was 0% inhibition and the average signal intensity of background wells (without addition of the enzyme) was 100% inhibition.

[4] = molecular target: c-Met (Homo sapiens (Human), UniProt P08581); assay: Enzyme inhibition activity test for kinases other than Trk (selectivity test): c-Met; assay type: biochemical; settings: test concentration 3 μM; read-out: Inhibition Rate (%) c-Met
Description: as §1, §2, §3

[5] = molecular target: b-Raf (Homo sapiens (Human), UniProt P15056); assay: Enzyme inhibition activity test for kinases other than Trk (selectivity test): b-Raf; assay type: biochemical; settings: test concentration 3 μM; read-out: Inhibition Rate (%) b-Raf
Description: as §1, §2, §3

[6] = molecular target: c-Kit (Homo sapiens (Human), UniProt P10721); assay: Enzyme inhibition activity test for kinases other than Trk (selectivity test): c-Kit; assay type: biochemical; settings: test concentration 3 μM; read-out: Inhibition Rate (%) c-Kit
Description: as §1, §2, §3

[7] = molecular target: KDR (Homo sapiens (Human), UniProt P35968); assay: Enzyme inhibition activity test for kinases other than Trk (selectivity test): KDR; assay type: biochemical; settings: test concentration 3 μM; read-out: Inhibition Rate (%) KDR
Description: as §1, §2, §3

Chain of TrkA (P04629 33-796): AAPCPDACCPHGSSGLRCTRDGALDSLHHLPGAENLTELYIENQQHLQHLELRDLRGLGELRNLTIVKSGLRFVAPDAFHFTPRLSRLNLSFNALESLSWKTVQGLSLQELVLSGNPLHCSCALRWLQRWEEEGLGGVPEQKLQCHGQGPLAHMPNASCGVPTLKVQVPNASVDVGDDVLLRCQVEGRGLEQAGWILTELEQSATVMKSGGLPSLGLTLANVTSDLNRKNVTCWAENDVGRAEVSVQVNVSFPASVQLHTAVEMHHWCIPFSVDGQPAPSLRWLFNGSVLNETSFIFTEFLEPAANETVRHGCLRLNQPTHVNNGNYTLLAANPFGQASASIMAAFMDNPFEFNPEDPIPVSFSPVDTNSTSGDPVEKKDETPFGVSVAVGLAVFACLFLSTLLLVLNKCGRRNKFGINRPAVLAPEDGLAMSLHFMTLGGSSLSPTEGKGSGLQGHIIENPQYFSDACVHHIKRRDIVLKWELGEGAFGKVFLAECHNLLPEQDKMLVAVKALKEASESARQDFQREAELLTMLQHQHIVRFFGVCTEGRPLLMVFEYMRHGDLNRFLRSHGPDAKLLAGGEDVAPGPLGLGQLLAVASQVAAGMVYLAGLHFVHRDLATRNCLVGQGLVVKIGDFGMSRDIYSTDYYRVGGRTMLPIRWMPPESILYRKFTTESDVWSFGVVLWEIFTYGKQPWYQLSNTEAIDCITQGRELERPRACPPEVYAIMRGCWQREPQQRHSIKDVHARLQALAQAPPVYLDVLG
Chain of Abl (P00519 whole entry): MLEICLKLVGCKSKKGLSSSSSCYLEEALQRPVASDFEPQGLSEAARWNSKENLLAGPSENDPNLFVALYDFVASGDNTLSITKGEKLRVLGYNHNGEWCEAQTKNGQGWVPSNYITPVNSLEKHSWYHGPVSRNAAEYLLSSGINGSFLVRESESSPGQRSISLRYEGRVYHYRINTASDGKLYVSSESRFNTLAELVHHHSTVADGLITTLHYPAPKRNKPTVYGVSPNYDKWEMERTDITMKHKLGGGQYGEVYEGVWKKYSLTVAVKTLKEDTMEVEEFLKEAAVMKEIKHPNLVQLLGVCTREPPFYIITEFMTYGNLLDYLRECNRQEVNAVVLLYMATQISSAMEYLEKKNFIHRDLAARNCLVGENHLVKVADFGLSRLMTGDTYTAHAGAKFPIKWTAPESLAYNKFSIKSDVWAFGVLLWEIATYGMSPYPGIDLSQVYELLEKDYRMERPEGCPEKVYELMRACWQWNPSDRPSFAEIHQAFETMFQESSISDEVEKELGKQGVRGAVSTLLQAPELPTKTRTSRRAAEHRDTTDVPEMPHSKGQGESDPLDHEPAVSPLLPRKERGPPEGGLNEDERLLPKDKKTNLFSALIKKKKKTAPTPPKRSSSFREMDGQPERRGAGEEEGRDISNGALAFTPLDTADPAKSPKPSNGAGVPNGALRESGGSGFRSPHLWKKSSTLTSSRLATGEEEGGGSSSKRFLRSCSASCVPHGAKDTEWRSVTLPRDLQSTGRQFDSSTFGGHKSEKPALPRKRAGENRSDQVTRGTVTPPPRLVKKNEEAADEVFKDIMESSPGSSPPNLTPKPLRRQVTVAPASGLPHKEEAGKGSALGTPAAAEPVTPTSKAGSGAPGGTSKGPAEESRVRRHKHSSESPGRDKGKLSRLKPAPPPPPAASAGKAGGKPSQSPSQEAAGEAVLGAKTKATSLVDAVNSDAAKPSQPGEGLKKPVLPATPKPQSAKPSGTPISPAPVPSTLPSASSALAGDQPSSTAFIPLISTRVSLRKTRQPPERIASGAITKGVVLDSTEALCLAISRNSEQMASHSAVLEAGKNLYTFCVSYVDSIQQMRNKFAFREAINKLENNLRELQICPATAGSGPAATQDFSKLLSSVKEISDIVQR
Chain of KDR (P35968 20-1356): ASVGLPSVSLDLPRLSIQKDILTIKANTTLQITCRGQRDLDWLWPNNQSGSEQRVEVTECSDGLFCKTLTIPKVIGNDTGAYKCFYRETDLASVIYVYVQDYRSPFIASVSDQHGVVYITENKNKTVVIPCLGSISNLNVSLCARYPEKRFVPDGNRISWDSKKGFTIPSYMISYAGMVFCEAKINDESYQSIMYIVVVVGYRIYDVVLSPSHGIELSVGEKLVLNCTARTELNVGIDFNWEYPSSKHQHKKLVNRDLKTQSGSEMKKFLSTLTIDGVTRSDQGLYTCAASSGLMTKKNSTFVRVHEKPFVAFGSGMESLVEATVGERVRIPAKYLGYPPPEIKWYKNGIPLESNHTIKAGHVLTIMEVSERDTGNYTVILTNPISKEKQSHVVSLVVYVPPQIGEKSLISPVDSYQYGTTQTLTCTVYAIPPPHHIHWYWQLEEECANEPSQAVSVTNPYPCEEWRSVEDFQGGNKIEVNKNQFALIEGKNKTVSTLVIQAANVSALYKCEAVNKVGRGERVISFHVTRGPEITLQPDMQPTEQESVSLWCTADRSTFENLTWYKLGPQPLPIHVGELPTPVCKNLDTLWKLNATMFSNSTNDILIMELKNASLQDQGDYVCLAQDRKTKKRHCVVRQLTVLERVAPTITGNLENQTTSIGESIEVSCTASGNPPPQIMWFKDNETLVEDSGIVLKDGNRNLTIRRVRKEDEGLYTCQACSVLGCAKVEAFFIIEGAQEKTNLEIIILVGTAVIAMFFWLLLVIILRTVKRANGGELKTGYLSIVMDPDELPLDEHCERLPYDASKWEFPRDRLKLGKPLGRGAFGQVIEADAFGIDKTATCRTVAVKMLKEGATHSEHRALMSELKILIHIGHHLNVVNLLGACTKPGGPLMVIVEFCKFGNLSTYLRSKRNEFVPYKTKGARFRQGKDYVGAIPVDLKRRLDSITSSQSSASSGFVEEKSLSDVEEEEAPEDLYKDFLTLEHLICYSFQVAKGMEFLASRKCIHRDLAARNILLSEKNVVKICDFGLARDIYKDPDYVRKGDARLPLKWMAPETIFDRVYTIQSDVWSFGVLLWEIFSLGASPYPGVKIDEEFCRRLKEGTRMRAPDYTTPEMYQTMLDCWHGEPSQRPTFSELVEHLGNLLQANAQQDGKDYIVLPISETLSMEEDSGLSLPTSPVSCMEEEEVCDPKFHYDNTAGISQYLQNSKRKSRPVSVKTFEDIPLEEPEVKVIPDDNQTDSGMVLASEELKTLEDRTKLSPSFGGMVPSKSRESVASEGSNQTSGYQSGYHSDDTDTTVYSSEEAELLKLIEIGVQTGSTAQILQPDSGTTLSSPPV
Chain of b-Raf (P15056 whole entry): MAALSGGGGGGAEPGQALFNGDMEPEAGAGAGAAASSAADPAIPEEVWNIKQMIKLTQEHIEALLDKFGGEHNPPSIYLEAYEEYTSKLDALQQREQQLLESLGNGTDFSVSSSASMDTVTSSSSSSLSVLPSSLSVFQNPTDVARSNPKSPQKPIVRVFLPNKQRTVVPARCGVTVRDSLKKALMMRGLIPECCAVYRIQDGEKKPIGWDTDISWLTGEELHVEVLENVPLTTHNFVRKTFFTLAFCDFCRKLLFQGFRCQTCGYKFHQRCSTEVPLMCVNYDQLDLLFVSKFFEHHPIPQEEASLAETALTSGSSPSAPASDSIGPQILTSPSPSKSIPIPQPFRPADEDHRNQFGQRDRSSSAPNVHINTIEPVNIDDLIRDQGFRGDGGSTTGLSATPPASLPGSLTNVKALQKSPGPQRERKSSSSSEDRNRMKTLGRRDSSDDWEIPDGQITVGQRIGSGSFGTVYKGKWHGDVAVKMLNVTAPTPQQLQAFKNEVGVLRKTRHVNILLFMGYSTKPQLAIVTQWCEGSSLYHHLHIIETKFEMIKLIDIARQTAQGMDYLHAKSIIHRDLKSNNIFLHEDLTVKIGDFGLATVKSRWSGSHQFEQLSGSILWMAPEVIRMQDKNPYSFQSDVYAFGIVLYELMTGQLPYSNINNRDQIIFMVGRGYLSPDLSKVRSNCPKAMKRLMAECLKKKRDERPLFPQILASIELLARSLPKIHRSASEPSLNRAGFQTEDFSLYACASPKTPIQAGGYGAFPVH
Chain of c-Kit (P10721 26-976): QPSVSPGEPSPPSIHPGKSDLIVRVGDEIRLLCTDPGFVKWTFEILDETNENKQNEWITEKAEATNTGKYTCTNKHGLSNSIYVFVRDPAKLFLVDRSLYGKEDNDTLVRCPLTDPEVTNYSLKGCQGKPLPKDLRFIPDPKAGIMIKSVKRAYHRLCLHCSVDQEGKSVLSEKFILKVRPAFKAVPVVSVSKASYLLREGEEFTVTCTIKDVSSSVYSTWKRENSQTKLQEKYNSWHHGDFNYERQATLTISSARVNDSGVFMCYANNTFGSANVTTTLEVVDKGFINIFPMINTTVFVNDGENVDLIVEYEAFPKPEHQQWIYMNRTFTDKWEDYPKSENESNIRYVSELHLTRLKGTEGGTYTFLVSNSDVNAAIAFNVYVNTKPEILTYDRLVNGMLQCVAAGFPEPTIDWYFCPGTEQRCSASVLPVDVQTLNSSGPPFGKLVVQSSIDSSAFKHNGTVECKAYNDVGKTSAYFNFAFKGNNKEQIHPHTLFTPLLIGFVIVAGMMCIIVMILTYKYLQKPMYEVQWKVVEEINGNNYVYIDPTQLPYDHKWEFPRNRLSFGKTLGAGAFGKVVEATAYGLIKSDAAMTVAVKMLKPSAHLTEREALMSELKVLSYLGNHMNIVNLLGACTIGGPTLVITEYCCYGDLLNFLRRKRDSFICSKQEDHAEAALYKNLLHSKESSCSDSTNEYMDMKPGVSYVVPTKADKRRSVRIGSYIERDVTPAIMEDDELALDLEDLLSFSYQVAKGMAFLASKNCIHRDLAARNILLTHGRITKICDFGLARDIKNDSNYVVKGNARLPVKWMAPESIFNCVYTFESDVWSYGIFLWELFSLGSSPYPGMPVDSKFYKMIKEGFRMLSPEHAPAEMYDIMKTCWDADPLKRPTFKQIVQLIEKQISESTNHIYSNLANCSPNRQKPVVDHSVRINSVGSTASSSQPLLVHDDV

For `CCCNc1ncc(-c2ccc(Oc3ncc(NC(=O)Nc4cc(C(F)(F)F)ccc4S(C)(=O)=O)cn3)cc2)s1` [Example 85-226, 1-[2-(methylsulfonyl)-5-(trifluoromethyl)phenyl]-3-(2-{4-[2-(propylamino)-1,3-thiazol-5-yl]phenoxy}-5-pyrimidinyl)urea], which IC50 [1] is on record?
Its IC50 is 0.001 µM.

And the inhibition in vivo at 1 mg/kg [2]?
Its inhibition in vivo at 1 mg/kg is 100%.

For `O=C(Nc1cnc(Oc2ccc(-c3cnc(N4CCCC4=O)s3)cc2)nc1)Nc1cc(C(F)(F)F)ccc1-c1cccnc1` [Example 84-3, 1-(2-{4-[2-(2-oxo-1-pyrrolidinyl)-1,3-thiazol-5-yl]phenoxy}-5-pyrimidinyl)-3-[2-(3-pyridinyl)-5-(trifluoromethyl)phenyl]urea], which inhibition at 3 µM [3] is on record?
The inhibition at 3 µM was 5.6%.

What about the inhibition at 3 µM [4] of the same compound?
The inhibition at 3 µM was 11%.

What about the inhibition at 3 µM [5] of the same compound?
Its inhibition at 3 µM is 36%.

What about the inhibition at 3 µM [6] of the same compound?
The inhibition at 3 µM was 28%.

And the inhibition at 3 µM [7]?
The inhibition at 3 µM was 5.2%.

And the inhibition in vivo at 1 mg/kg [2]?
The inhibition in vivo at 1 mg/kg was 94%.

For `CCCNc1ncc(-c2ccc(Oc3ncc(NC(=O)Nc4cc(C(F)(F)F)ccc4S(=O)(=O)N(C)C)cn3)cc2)s1` [Example 85-225, N,N-dimethyl-2-{[(2-{4-[2-(propylamino)-1,3-thiazol-5-yl]phenoxy}-5-pyrimidinyl)carbamoyl]amino}-4-(trifluoromethyl)benzenesulfonamide], which IC50 [1] is on record?
Its IC50 is 0.004 µM.

And the inhibition in vivo at 1 mg/kg [2]?
The inhibition in vivo at 1 mg/kg was 94%.

`CCCNc1ncc(-c2ccc(Oc3ncc(NC(=O)Nc4cc(C(F)(F)F)ccc4-n4ccc(C(F)(F)F)n4)cn3)cc2)s1` [Example 85-184, 1-(2-{4-[2-(propylamino)-1,3-thiazol-5-yl]phenoxy}-5-pyrimidinyl)-3-{5-(trifluoromethyl)-2-[3-(trifluoromethyl)-1H-pyrazol-1-yl]phenyl}urea] was tested. Which IC50 [1] did it give?
Its IC50 is 0.002 µM.

And the inhibition in vivo at 1 mg/kg [2]?
Its inhibition in vivo at 1 mg/kg is 96%.

For `CCCNc1ncc(-c2ccc(Oc3ncc(NC(=O)Nc4cc(F)ccc4F)cn3)cc2)s1` [Example 85-209, 1-(2,5-difluorophenyl)-3-(2-{4-[2-(propylamino)-1,3-thiazol-5-yl]phenoxy}-5-pyrimidinyl)urea], which IC50 [1] is on record?
The IC50 was 0.004 µM.

What about the inhibition in vivo at 1 mg/kg [2] of the same compound?
The inhibition in vivo at 1 mg/kg was 81%.
